Results published in US10058586B2, “Use of human small leucine zipper protein in adipocyte differentiation procedure” (Korea University Research and Business Foundation, priority 2013, dated 2018).
d = 2'-deoxy (DNA)

Target: T1, PPARγ2 (Homo sapiens, UniProt P37231)
T1 sequence (P37231 1-505): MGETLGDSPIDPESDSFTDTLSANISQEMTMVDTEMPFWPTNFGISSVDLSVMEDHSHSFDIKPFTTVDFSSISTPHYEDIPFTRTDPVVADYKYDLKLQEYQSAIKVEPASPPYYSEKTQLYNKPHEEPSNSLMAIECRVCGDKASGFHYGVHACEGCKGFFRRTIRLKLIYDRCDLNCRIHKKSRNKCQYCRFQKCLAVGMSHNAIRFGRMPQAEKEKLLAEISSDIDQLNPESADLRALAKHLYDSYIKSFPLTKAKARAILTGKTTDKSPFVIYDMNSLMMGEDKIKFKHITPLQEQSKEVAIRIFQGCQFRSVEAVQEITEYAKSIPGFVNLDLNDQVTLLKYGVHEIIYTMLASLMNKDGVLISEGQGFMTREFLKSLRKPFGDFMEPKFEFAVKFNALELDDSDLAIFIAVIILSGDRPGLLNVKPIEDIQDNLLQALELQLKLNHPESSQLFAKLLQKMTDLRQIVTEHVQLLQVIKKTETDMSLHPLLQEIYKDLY
Test: Luciferase reporter gene analysis (FABP4-Luc) of PPARγ2 transcriptional activity in 293T cells
Assay type: cell-based
Parameters: expressed in transfected cells; host or cells: 293T cells
Conditions: for sLZIP-mediated PPARγ2 transcriptional activity (luciferase): 293T cells expressing sLZIP, 100 nM si-RNAs, with or without 10 nM RZD
Procedure: C3H10T1/2 and 293T cells were plated in a 12-well culture dish at a density of 2×10^5 cells/well and incubated for 24 hours. Then, according to instructions of the manufacturer, the cells were transfected with a 0.2 μg of reporter genes and 0.1 to 0.5 μg of a laboratory plasmid using Lipofectamine 2000 or Genefectine. After 24 hours, the cells were cultured in a serum-free DMEM with or without 10 nM of rosiglitazone. siRNAs were prepared using sLZIP and HDAC target sequences (Table 1). For an RNA interference experiment, according to instructions of the manufacturer, the cells were transfected with scrambled control group RNA and appropriate siRNAs using Lipofectamine 2000. Human MSC and C3H10T/1/2 cells were infected with an adenovirus vector containing cDNA of human sLZIP or an empty vector. The infected medium was exchanged with a fresh medium after two hours.
Appropriately transfected cells were washed with cold PBS twice, and a reporter lysis buffer (Promega) was used and lysed in a culture dish. Luciferase analysis was performed using a luciferase analysis system (Promega Corporation, Madison, Wis.). A luciferase activity was recorded in Luminometer 20/20^n (Turner BioSystems, Sunnyvale, Calif.) according to instructions of the manufacturer. The luciferase activity was normalized to a β-galactosidase activity. For β-galactosidase analysis, CMV-β-galactosidase was transfected with luciferase reporter genes. All pieces of data were represented as mean±standard deviation of the results from at least three independent experiments.
In order to examine an effect of sLZIP on the transcriptional activity of PPARγ2, 293T cells were temporarily transfected with PPARγ2 (0.5 μg), β-galactosidase (0.1 μg), FABP4-Luc reporter genes (0.2 μg) and sLZIP at different contents (0.1 to 0.5 μg). After the transfection, the cells were stimulated with or without 10 nM of rosiglitazone (RZD) (FIG. 1A), pioglitazone (PZD) (FIG. 1B), and troglitazone (TZD) (FIG. 1C). A relative luciferase activity was analyzed with or without cell ligand treatment 24 hours after transfection. Also, the 293T cells were transiently transfected with si-sLZIP at different contents (50 and 100 nM), and the cells were treated or not treated with RZD (FIG. 1D). FABP4-Luc stable C3H10T1/2 cells were infected with a sLZIP-expressing adenovirus, and then differentiated into adipocytes for 4 days (FIG. 1E). A luciferase activity was normalized to a β-galactosidase activity and represented as a relative activity (fold change). All experiments were repeated three times, and bars in the graph represent mean±standard deviation. *, P<0.05; **, P<0.01
For this purpose, 293T cells were transiently transfected with PPARγ2 (0.5 μg), (3-galactosidase (0.1 μg), FABP4-Luc reporter genes (0.2 μg) and sLZIP (0.1 μg). After the transfection, the cells were stimulated with or without 10 nM of RZD and 10 nM of TSA (FIG. 4A). A promoter activity was measured according to luciferase analysis. In the 293T cells, FABP4-Luc reporter genes, sLZIP, PPAR, β-galactosidase, and 100 nM of si-RNAs and HDAC1, 2, 3 and 8 for a control group were expressed. After the transfection, the cells were stimulated with or without 10 nM of RZD, and a promoter activity was measured (FIG. 4B). 293T cells were temporarily transfected with FABP4-Luc reporter genes, PPARγ2, β-galactosidase, HDAC3 (0.5 μg) and sLZIP (0.1 μg). After the transfection, the cells were stimulated with or without 10 nM of RZD, and luciferase analysis was performed (FIG. 4C). A luciferase activity was normalized to a β-galactosidase activity and represented as a relative intensity (fold change). All experiments were repeated three times, and bars in the graph represent mean±standard deviation. GFP-sLZIP expression constructs were expressed in C3H10T1/2 cells, rabbit anti-HDAC3 antibodies and Texas Red-labeled anti-rabbit antibodies were used and analysis was performed under a fluorescence microscope. The nucleus was stained with DAPI (FIG. 4D). […]

si-sLZIP: siRNA for sLZIP, SEQ ID NO: 5 and 6 (+dTdT) (chain 1 GGACCCAGAUGACUCCACAGCAUAU; chain 2 AUAUGCUGUGGAGUCAUCUGGGUCC; RNA, 3' dTdT, backbone not given here) [reference compound]
transcriptional activity of PPARγ2 (relative luciferase activity) (293T cells, si-sLZIP 50 and 100 nM, treated or not treated with RZD): increased the transcriptional activity of PPARγ2

siRNA for HDAC1: siRNA with HDAC1 target sequence, SEQ ID NO: 7 and 8 (chain 1 CGACUGUUUGAGAACCUUA; chain 2 UAAGGUUCUCAAACAGUCGCU; RNA, 3' dTdT, backbone not given here) [reference compound]
sLZIP-mediated PPARγ2 transcriptional activity (luciferase): not involved in sLZIP-mediated PPARγ2 regulation

siRNA for HDAC2: siRNA with HDAC2 target sequence, SEQ ID NO: 9 and 10 (chain 1 GGUCAAUAAGACCAGAUAA; chain 2 UUAUCUGGUCUUAUUGACCG; RNA, 3' dTdT, backbone not given here) [reference compound]
sLZIP-mediated PPARγ2 transcriptional activity (luciferase): not involved in sLZIP-mediated PPARγ2 regulation

siRNA for HDAC3: siRNA with HDAC3 target sequence, SEQ ID NO: 11 and 12, used to knock down HDAC3 (chain 1 GCCGGUUAUCAACCAGGUA; chain 2 UACCUGGUUGAUAACCGGC; RNA, 3' dTdT, backbone not given here) [reference compound]
sLZIP-mediated PPARγ2 transcriptional activity (luciferase): significantly increased

siRNA for HDAC8: siRNA with HDAC8 target sequence, SEQ ID NO: 13 and 14 (chain 1 CAUUCAGGAUGGCAUACAA; chain 2 UUGUAUGCCAUCCUGAAUGGG; RNA, 3' dTdT, backbone not given here) [reference compound]
sLZIP-mediated PPARγ2 transcriptional activity (luciferase): not involved in sLZIP-mediated PPARγ2 regulation
